Measurements from patent publication US8216802B2, “Detection medium for gram negative bacteria” (Biomerieux, priority 2007, dated 2012).

Key:
Assay type in all cases: cell-based
Citrobacter freundii 022 [1] = assay: Colony coloration on CPS ID 3 medium with cellobiose; settings: 37° C.
Description: (§1) Various concentrations of cellobiose (0-100-350-1000 mg/l) are added to the CPS ID 3 medium (bioMérieux). These media contain 6-chloro-3-indolyl-beta-glucuronide at 250 mg/l and 5-bromo-4-chloro-3-indolyl-beta-glucoside at 50 mg/l. These media are distributed in a proportion of 20 ml per Petri dish. Microorganisms derived from the applicant's collection were inoculated on these media by semi-quantitative isolation of 10 μl of a suspension at 0.5 McFarland, diluted to 1/20. The dishes were incubated at 37° C. for 48 hours. The colonies formed were examined visually after 24 and 48 hours of incubation. The coloration of these colonies was noted.

Citrobacter freundii 031 [2] = assay: as above; settings: 37° C.
Description: as §1

Citrobacter freundii 104 [3] = assay: as above; settings: 37° C.
Description: as §1

[4] = tested on: Enterococcus faecalis 117; assay: as above; settings: 37° C.
Description: as §1

Escherichia coli 003 [5] = assay: as above; settings: 37° C.
Description: as §1

Escherichia coli 407 = assay: as above; settings: 37° C.
Description: as §1

[6] = tested on: Klebsiella pneumoniae 111; assay: as above; settings: 37° C.
Description: as §1

Serratia marcescens 112 [7] = assay: as above; settings: 37° C.
Description: as §1

Citrobacter freundii 022 [8] = assay: Colony coloration on supplemented Trypticase Soy medium with cellobiose; settings: 37° C.
Description: (§2) Various concentrations of cellobiose (0-0.1-1-5-10 g/l) are added to Trypticase Soy medium (bioMérieux) supplemented with 5-bromo-6-chloro-3-indolyl-beta-galactoside at 50 mg/l and with 5-bromo-4-chloro-3-indolyl-beta-glucoside at 50 mg/l. These media are distributed in a proportion of 20 ml per Petri dish. Microorganisms derived from the applicant's collection were inoculated on these media by semi-quantitative isolation of 10 μl of a suspension at 0.5 McFarland, diluted to 1/20. The dishes were incubated at 37° C. for 48 hours. The colonies formed were examined visually after 24 and 48 hours of incubation. The coloration of these colonies was noted.

Citrobacter freundii 031 [9] = assay: as above; settings: 37° C.
Description: as §2

Citrobacter freundii 104 [10] = assay: as above; settings: 37° C.
Description: as §2

[11] = tested on: Enterococcus faecalis 117; assay: as above; settings: 37° C.
Description: as §2

Escherichia coli 003 [12] = assay: as above; settings: 37° C.
Description: as §2

Escherichia coli 018 = assay: as above; settings: 37° C.
Description: as §2

[13] = tested on: Klebsiella pneumoniae 111; assay: as above; settings: 37° C.
Description: as §2

Serratia marcescens 112 [14] = assay: as above; settings: 37° C.
Description: as §2

Citrobacter strains [15] = assay: Colony coloration on CPS ID 3 medium with cellobiose (text summary); settings: in the presence of cellobiose
Description: as §1

Citrobacter strains [16] = assay: Colony coloration on supplemented Trypticase Soy medium with cellobiose (text summary)
Description: as §2

## O=C[C@H](O)[C@@H](O)[C@H](O[C@@H]1O[C@H](CO)[C@@H](O)[C@H](O)[C@H]1O)[C@H](O)CO [Cellobiose, cellobiose]
Citrobacter freundii 022 [1]; cellobiose 100 mg/l, 24 h
  colony coloration: Violet
Citrobacter freundii 022 [1]; cellobiose 100 mg/l, 48 h
  colony coloration: Violet
Citrobacter freundii 022 [1]; cellobiose 350 mg/l, 24 h
  colony coloration: Violet
Citrobacter freundii 022 [1]; cellobiose 350 mg/l, 48 h
  colony coloration: Violet
Citrobacter freundii 022 [1]; cellobiose 1000 mg/l, 24 h
  colony coloration: Violet
Citrobacter freundii 022 [1]; cellobiose 1000 mg/l, 48 h
  colony coloration: Violet
Citrobacter freundii 031 [2]; cellobiose 100 mg/l, 24 h
  colony coloration: Green
Citrobacter freundii 031 [2]; cellobiose 100 mg/l, 48 h
  colony coloration: Green
Citrobacter freundii 031 [2]; cellobiose 350 mg/l, 24 h
  colony coloration: Green
Citrobacter freundii 031 [2]; cellobiose 350 mg/l, 48 h
  colony coloration: Green
Citrobacter freundii 031 [2]; cellobiose 1000 mg/l, 24 h
  colony coloration: Colorless
Citrobacter freundii 031 [2]; cellobiose 1000 mg/l, 48 h
  colony coloration: Green
Citrobacter freundii 104 [3]; cellobiose 100 mg/l, 24 h
  colony coloration: Green
Citrobacter freundii 104 [3]; cellobiose 100 mg/l, 48 h
  colony coloration: Green
Citrobacter freundii 104 [3]; cellobiose 350 mg/l, 24 h
  colony coloration: Green
Citrobacter freundii 104 [3]; cellobiose 350 mg/l, 48 h
  colony coloration: Green
Citrobacter freundii 104 [3]; cellobiose 1000 mg/l, 24 h
  colony coloration: Green
Citrobacter freundii 104 [3]; cellobiose 1000 mg/l, 48 h
  colony coloration: Green
[4]; cellobiose 100 mg/l, 24 h
  colony coloration: Turquoise
[4]; cellobiose 100 mg/l, 48 h
  colony coloration: Turquoise
[4]; cellobiose 350 mg/l, 24 h
  colony coloration: Turquoise
[4]; cellobiose 350 mg/l, 48 h
  colony coloration: Turquoise
[4]; cellobiose 1000 mg/l, 24 h
  colony coloration: Turquoise
[4]; cellobiose 1000 mg/l, 48 h
  colony coloration: Turquoise
Escherichia coli 003 [5]; cellobiose 100 mg/l, 24 h
  colony coloration: Pink
Escherichia coli 003 [5]; cellobiose 100 mg/l, 48 h
  colony coloration: Red
Escherichia coli 003 [5]; cellobiose 350 mg/l, 24 h
  colony coloration: Pink
Escherichia coli 003 [5]; cellobiose 350 mg/l, 48 h
  colony coloration: Red
Escherichia coli 003 [5]; cellobiose 1000 mg/l, 24 h
  colony coloration: Pink
Escherichia coli 003 [5]; cellobiose 1000 mg/l, 48 h
  colony coloration: Red
Escherichia coli 407; cellobiose 100 mg/l, 24 h
  colony coloration: Pink
Escherichia coli 407; cellobiose 100 mg/l, 48 h
  colony coloration: Red
Escherichia coli 407; cellobiose 350 mg/l, 24 h
  colony coloration: Pink
Escherichia coli 407; cellobiose 350 mg/l, 48 h
  colony coloration: Red
Escherichia coli 407; cellobiose 1000 mg/l, 24 h
  colony coloration: Pink
Escherichia coli 407; cellobiose 1000 mg/l, 48 h
  colony coloration: Red
[6]; cellobiose 100 mg/l, 24 h
  colony coloration: Turquoise
[6]; cellobiose 100 mg/l, 48 h
  colony coloration: Turquoise
[6]; cellobiose 350 mg/l, 24 h
  colony coloration: Turquoise
[6]; cellobiose 350 mg/l, 48 h
  colony coloration: Turquoise
[6]; cellobiose 1000 mg/l, 24 h
  colony coloration: Turquoise
[6]; cellobiose 1000 mg/l, 48 h
  colony coloration: Turquoise
Serratia marcescens 112 [7]; cellobiose 100 mg/l, 24 h
  colony coloration: Turquoise
Serratia marcescens 112 [7]; cellobiose 100 mg/l, 48 h
  colony coloration: Turquoise
Serratia marcescens 112 [7]; cellobiose 350 mg/l, 24 h
  colony coloration: Turquoise
Serratia marcescens 112 [7]; cellobiose 350 mg/l, 48 h
  colony coloration: Turquoise
Serratia marcescens 112 [7]; cellobiose 1000 mg/l, 24 h
  colony coloration: Turquoise
Serratia marcescens 112 [7]; cellobiose 1000 mg/l, 48 h
  colony coloration: Turquoise
Citrobacter freundii 022 [8]; cellobiose 0.1 g/l, 24 h
  colony coloration: Violet
Citrobacter freundii 022 [8]; cellobiose 0.1 g/l, 48 h
  colony coloration: Blue
Citrobacter freundii 022 [8]; cellobiose 1 g/l, 24 h
  colony coloration: Violet
Citrobacter freundii 022 [8]; cellobiose 1 g/l, 48 h
  colony coloration: Blue
Citrobacter freundii 022 [8]; cellobiose 5 g/l, 24 h
  colony coloration: Pink
Citrobacter freundii 022 [8]; cellobiose 5 g/l, 48 h
  colony coloration: Blue
Citrobacter freundii 022 [8]; cellobiose 10 g/l, 24 h
  colony coloration: Mauve
Citrobacter freundii 022 [8]; cellobiose 10 g/l, 48 h
  colony coloration: Mauve
Citrobacter freundii 031 [9]; cellobiose 0.1 g/l, 24 h
  colony coloration: Violet
Citrobacter freundii 031 [9]; cellobiose 0.1 g/l, 48 h
  colony coloration: Green
Citrobacter freundii 031 [9]; cellobiose 1 g/l, 24 h
  colony coloration: Mauve
Citrobacter freundii 031 [9]; cellobiose 1 g/l, 48 h
  colony coloration: Green
Citrobacter freundii 031 [9]; cellobiose 5 g/l, 24 h
  colony coloration: Mauve
Citrobacter freundii 031 [9]; cellobiose 5 g/l, 48 h
  colony coloration: Green
Citrobacter freundii 031 [9]; cellobiose 10 g/l, 24 h
  colony coloration: Mauve
Citrobacter freundii 031 [9]; cellobiose 10 g/l, 48 h
  colony coloration: Mauve
Citrobacter freundii 104 [10]; cellobiose 0.1 g/l, 24 h
  colony coloration: Violet
Citrobacter freundii 104 [10]; cellobiose 0.1 g/l, 48 h
  colony coloration: Green
Citrobacter freundii 104 [10]; cellobiose 1 g/l, 24 h
  colony coloration: Violet
Citrobacter freundii 104 [10]; cellobiose 1 g/l, 48 h
  colony coloration: Green
Citrobacter freundii 104 [10]; cellobiose 5 g/l, 24 h
  colony coloration: Mauve
Citrobacter freundii 104 [10]; cellobiose 5 g/l, 48 h
  colony coloration: Green
Citrobacter freundii 104 [10]; cellobiose 10 g/l, 24 h
  colony coloration: Mauve
Citrobacter freundii 104 [10]; cellobiose 10 g/l, 48 h
  colony coloration: Mauve
[11]; cellobiose 0.1 g/l, 24 h
  colony coloration: Turquoise
[11]; cellobiose 0.1 g/l, 48 h
  colony coloration: Turquoise
[11]; cellobiose 1 g/l, 24 h
  colony coloration: Turquoise
[11]; cellobiose 1 g/l, 48 h
  colony coloration: Turquoise
[11]; cellobiose 5 g/l, 24 h
  colony coloration: Turquoise
[11]; cellobiose 5 g/l, 48 h
  colony coloration: Turquoise
[11]; cellobiose 10 g/l, 24 h
  colony coloration: Turquoise
[11]; cellobiose 10 g/l, 48 h
  colony coloration: Turquoise
Escherichia coli 003 [12]; cellobiose 0.1 g/l, 24 h
  colony coloration: Mauve
Escherichia coli 003 [12]; cellobiose 0.1 g/l, 48 h
  colony coloration: Mauve
Escherichia coli 003 [12]; cellobiose 1 g/l, 24 h
  colony coloration: Mauve
Escherichia coli 003 [12]; cellobiose 1 g/l, 48 h
  colony coloration: Mauve
Escherichia coli 003 [12]; cellobiose 5 g/l, 24 h
  colony coloration: Mauve
Escherichia coli 003 [12]; cellobiose 5 g/l, 48 h
  colony coloration: Mauve
Escherichia coli 003 [12]; cellobiose 10 g/l, 24 h
  colony coloration: Mauve
Escherichia coli 003 [12]; cellobiose 10 g/l, 48 h
  colony coloration: Mauve
Escherichia coli 018; cellobiose 0.1 g/l, 24 h
  colony coloration: Mauve
Escherichia coli 018; cellobiose 0.1 g/l, 48 h
  colony coloration: Mauve
Escherichia coli 018; cellobiose 1 g/l, 24 h
  colony coloration: Mauve
Escherichia coli 018; cellobiose 1 g/l, 48 h
  colony coloration: Mauve
Escherichia coli 018; cellobiose 5 g/l, 24 h
  colony coloration: Mauve
Escherichia coli 018; cellobiose 5 g/l, 48 h
  colony coloration: Mauve
Escherichia coli 018; cellobiose 10 g/l, 24 h
  colony coloration: Mauve
Escherichia coli 018; cellobiose 10 g/l, 48 h
  colony coloration: Mauve
[13]; cellobiose 0.1 g/l, 24 h
  colony coloration: Green
[13]; cellobiose 0.1 g/l, 48 h
  colony coloration: Blue
[13]; cellobiose 1 g/l, 24 h
  colony coloration: Green
[13]; cellobiose 1 g/l, 48 h
  colony coloration: Blue
[13]; cellobiose 5 g/l, 24 h
  colony coloration: Turquoise
[13]; cellobiose 5 g/l, 48 h
  colony coloration: Blue
[13]; cellobiose 10 g/l, 24 h
  colony coloration: Turquoise
[13]; cellobiose 10 g/l, 48 h
  colony coloration: Blue
Serratia marcescens 112 [14]; cellobiose 0.1 g/l, 24 h
  colony coloration: Green
Serratia marcescens 112 [14]; cellobiose 0.1 g/l, 48 h
  colony coloration: Blue
Serratia marcescens 112 [14]; cellobiose 1 g/l, 24 h
  colony coloration: Green
Serratia marcescens 112 [14]; cellobiose 1 g/l, 48 h
  colony coloration: Blue
Serratia marcescens 112 [14]; cellobiose 5 g/l, 24 h
  colony coloration: Green
Serratia marcescens 112 [14]; cellobiose 5 g/l, 48 h
  colony coloration: Blue
Serratia marcescens 112 [14]; cellobiose 10 g/l, 24 h
  colony coloration: Turquoise
Serratia marcescens 112 [14]; cellobiose 10 g/l, 48 h
  colony coloration: Blue
Citrobacter strains [15]
  coloration of the colonies (beta-glucosidase activity expressed): green to violet coloration
Citrobacter strains [16]; cellobiose concentrations above 5 g/l
  differentiation of C. freundii from E. coli: less marked
Citrobacter strains [16]; in the presence of cellobiose, supplemented Trypticase Soy medium
  coloration of the colonies (beta-glucosidase activity expressed): green to violet coloration
